# Target: T1, TREK-2 Y315A (Homo sapiens, UniProt P57789, Y310A)
# T1 construct: expressed in transfected cells; host or cells: HEK293 cells, transient transfection with pcDNA3
# T1 sequence (P57789 1-543 isoform P57789-4 Y315A): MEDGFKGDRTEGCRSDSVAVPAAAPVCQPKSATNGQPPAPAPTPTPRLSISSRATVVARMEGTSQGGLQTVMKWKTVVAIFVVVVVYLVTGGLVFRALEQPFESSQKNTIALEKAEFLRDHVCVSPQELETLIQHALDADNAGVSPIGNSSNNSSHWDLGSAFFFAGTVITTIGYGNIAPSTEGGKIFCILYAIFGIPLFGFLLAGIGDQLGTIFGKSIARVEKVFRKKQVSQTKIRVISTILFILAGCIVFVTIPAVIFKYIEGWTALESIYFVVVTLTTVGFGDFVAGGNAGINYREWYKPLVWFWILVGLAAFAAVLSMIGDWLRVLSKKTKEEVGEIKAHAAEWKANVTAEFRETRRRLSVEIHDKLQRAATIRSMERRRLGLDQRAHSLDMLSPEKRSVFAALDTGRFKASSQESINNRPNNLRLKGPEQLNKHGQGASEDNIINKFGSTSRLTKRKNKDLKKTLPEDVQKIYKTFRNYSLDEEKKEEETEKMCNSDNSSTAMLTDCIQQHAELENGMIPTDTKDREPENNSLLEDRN
# Assay: Single-channel recordings of TREK-2 Y315A mutant in excised patches from HEK293 cells
# Assay type: cell-based
# Settings: 10 µM NFx; before desensitization (effect dramatically reduced within ∼30 s)
# Protocol: HEK293 cells were cultured in DMEM (Sigma) containing 10% FBS (Life Technologies), 3 mM glucose, and 2 mM glutamine at 37°C in a humidified atmosphere of 5% CO2/[…] at 37°C. Cells were transiently transfected with 0.2 µg channel pcDNA3 per dish using FuGENE 6 according to the manufacturer’s instructions. Cells were used 1–2 d after transfection.
# For currents recorded in Xenopus laevis oocytes, giant-patch electrodes were pulled from thick-walled borosilicate glass and polished to give pipette resistances of ∼0.3–0.5 MΩ when filled with patch solution. […] Patches were perfused via a gravity-flow perfusion system and a HEKA EPC 10 USB single computer–controlled amplifier was used and currents recorded using a Patchmaster v2 × 90.5 (HEKA Electronics), filtered at 1 kHz, and sampled at 10 kHz. For currents recorded in HEK293 cells, patch electrodes were pulled from thick-walled borosilicate glass and polished to give pipette resistances of ∼3–5 MΩ when filled with patch solution. The currents were recorded from excised patches with both intracellular and extracellular solution containing 200 mM KCl and 10 mM HEPES (pH 6.0 with KOH). […] Data were acquired with pClamp and recorded using an Axopatch 200B (Molecular Devices), filtered at 5 kHz, and sampled at 200 kHz. Single-channel currents were analyzed in an identical manner to those obtained from bilayers (see above). […]
smiles,measurement,value
"NCCC(Oc1ccc(C(F)(F)F)cc1)c1ccccc1 (stereo not shown) [NFx, norfluoxetine]",initial reduction of channel Po,> 90%
